What all share (format): functional
In assay [1] the test system is Plasmodium. The assay can be described thus: In vivo antiparasitic activity against Plasmodium sp. assessed as fever clearance time.
Assay [2] can be described thus: In vivo antiparasitic activity against Toxoplasma sp. assessed as fever clearance time.
A short description of assay [3]: In vivo antiparasitic activity against Toxoplasma sp. assessed as parasite clearance time.
The nature of assay [4]: In vivo antiparasitic activity against Babesia sp. assessed as parasite clearance time.
Assay [5] relates to Plasmodium. Put plainly: In vivo antiparasitic activity against Plasmodium sp. assessed as parasite clearance time.
Assay [6] in a line: In vivo antiparasitic activity against Babesia sp. assessed as fever clearance time.
Assay [7] can be described thus: In vivo antiparasitic activity against Pneumocystis sp. assessed as parasite clearance time.
The nature of assay [8]: In vivo antiparasitic activity against Pneumocystis sp. assessed as fever clearance time.

The values that follow come from ChEMBL document CHEMBL4041522, “Comprehensive review on various strategies for antimalarial drug discovery” (2017).

Regarding `CCC[C@@H]1C[C@@H](C(=O)N[C@@H]([C@H]2O[C@H](SC)[C@H](O)[C@@H](O)[C@H]2O)[C@H](C)Cl)N(C)C1` [CLINDAMYCIN], the Time with Plasmodium [1] was 3 to 5 days; in assay [2] it was 3 to 5 days; in assay [3], 4 to 6 days; in assay [4], 4 to 6 days; in the assay with Plasmodium [5] it was 4 to 6 days; in assay [6] it was 3 to 5 days. Also, the Time lay within 4 to 6 days in assay [7] and 3 to 5 days in assay [8].
